# Experimental data taken from ChEMBL document CHEMBL1201862, “PubChem BioAssay data set” (2004).
# Activity calls are given as the source filed them.
# Key:
# Hexokinase HKDC1 = molecular target: T1, Hexokinase HKDC1 (Homo sapiens, UniProt Q2TB90); assay: HKDC1 hexokinase inhibitors, dose response, biochemical, W721R variant (AID 504729); assay type: functional
# T1 sequence (Q2TB90 whole entry): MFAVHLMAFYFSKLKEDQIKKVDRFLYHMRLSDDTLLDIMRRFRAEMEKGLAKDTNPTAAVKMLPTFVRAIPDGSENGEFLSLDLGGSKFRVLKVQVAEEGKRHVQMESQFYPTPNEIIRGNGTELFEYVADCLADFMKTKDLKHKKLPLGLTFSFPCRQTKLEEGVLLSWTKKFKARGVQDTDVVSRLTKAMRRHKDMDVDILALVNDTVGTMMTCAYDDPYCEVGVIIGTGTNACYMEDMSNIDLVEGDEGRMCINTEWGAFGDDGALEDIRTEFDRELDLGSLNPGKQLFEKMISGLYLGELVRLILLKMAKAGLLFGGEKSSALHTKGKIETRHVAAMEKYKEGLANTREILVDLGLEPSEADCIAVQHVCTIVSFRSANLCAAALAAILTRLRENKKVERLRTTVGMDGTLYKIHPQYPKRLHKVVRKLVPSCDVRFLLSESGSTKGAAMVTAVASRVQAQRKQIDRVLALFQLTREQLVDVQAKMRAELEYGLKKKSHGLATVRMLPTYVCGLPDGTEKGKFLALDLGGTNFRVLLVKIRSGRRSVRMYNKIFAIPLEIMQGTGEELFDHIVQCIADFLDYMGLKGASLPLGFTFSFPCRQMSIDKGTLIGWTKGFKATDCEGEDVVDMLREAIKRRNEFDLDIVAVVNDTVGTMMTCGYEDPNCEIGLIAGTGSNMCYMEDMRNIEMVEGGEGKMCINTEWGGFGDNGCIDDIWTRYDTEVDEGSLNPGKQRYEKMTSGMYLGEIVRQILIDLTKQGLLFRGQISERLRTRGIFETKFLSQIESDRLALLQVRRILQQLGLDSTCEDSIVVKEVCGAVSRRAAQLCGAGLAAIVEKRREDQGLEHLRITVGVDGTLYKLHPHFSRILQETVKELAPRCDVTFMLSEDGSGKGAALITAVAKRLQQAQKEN
# [1] = molecular target: T2, Long-chain-fatty-acid--AMP ligase FadD28 (Mycobacterium tuberculosis, UniProt P9WQ59); assay: Fluorescence polarization aasay to screen for inhibitors that compete for the binding of FadD28 to a bisubstrate Measured in Biochemical System Using Plate Reader - 2147-01_Inhibitor_Dose_CherryPick_Activity.; assay type: functional, Mycobacterium tuberculosis H37Rv
# T2 sequence (P9WQ59 whole entry): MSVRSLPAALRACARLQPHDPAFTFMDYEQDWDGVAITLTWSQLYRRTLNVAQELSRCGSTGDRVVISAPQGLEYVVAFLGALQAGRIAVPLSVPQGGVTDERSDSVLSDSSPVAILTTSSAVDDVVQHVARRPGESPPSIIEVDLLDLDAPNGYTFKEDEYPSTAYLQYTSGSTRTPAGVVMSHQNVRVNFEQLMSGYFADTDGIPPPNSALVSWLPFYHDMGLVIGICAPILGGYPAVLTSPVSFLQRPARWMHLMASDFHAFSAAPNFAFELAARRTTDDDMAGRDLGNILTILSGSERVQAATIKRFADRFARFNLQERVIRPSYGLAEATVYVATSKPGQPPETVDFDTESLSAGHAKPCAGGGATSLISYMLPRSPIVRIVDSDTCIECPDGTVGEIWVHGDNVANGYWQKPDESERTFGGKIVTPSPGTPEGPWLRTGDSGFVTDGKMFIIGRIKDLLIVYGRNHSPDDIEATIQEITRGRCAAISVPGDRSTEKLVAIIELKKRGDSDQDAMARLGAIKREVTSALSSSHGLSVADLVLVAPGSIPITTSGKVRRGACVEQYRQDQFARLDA
# [2] = molecular target: Leucine-rich repeat serine/threonine-protein kinase 2 (Homo sapiens, UniProt Q5S007); assay type: functional;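 note: value from a broad kinome-wide panel profiling study in which LRRK2 was one of the kinases tested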
# Sequence of Leucine-rich repeat serine/threonine-protein kinase 2 (Q5S007 whole entry): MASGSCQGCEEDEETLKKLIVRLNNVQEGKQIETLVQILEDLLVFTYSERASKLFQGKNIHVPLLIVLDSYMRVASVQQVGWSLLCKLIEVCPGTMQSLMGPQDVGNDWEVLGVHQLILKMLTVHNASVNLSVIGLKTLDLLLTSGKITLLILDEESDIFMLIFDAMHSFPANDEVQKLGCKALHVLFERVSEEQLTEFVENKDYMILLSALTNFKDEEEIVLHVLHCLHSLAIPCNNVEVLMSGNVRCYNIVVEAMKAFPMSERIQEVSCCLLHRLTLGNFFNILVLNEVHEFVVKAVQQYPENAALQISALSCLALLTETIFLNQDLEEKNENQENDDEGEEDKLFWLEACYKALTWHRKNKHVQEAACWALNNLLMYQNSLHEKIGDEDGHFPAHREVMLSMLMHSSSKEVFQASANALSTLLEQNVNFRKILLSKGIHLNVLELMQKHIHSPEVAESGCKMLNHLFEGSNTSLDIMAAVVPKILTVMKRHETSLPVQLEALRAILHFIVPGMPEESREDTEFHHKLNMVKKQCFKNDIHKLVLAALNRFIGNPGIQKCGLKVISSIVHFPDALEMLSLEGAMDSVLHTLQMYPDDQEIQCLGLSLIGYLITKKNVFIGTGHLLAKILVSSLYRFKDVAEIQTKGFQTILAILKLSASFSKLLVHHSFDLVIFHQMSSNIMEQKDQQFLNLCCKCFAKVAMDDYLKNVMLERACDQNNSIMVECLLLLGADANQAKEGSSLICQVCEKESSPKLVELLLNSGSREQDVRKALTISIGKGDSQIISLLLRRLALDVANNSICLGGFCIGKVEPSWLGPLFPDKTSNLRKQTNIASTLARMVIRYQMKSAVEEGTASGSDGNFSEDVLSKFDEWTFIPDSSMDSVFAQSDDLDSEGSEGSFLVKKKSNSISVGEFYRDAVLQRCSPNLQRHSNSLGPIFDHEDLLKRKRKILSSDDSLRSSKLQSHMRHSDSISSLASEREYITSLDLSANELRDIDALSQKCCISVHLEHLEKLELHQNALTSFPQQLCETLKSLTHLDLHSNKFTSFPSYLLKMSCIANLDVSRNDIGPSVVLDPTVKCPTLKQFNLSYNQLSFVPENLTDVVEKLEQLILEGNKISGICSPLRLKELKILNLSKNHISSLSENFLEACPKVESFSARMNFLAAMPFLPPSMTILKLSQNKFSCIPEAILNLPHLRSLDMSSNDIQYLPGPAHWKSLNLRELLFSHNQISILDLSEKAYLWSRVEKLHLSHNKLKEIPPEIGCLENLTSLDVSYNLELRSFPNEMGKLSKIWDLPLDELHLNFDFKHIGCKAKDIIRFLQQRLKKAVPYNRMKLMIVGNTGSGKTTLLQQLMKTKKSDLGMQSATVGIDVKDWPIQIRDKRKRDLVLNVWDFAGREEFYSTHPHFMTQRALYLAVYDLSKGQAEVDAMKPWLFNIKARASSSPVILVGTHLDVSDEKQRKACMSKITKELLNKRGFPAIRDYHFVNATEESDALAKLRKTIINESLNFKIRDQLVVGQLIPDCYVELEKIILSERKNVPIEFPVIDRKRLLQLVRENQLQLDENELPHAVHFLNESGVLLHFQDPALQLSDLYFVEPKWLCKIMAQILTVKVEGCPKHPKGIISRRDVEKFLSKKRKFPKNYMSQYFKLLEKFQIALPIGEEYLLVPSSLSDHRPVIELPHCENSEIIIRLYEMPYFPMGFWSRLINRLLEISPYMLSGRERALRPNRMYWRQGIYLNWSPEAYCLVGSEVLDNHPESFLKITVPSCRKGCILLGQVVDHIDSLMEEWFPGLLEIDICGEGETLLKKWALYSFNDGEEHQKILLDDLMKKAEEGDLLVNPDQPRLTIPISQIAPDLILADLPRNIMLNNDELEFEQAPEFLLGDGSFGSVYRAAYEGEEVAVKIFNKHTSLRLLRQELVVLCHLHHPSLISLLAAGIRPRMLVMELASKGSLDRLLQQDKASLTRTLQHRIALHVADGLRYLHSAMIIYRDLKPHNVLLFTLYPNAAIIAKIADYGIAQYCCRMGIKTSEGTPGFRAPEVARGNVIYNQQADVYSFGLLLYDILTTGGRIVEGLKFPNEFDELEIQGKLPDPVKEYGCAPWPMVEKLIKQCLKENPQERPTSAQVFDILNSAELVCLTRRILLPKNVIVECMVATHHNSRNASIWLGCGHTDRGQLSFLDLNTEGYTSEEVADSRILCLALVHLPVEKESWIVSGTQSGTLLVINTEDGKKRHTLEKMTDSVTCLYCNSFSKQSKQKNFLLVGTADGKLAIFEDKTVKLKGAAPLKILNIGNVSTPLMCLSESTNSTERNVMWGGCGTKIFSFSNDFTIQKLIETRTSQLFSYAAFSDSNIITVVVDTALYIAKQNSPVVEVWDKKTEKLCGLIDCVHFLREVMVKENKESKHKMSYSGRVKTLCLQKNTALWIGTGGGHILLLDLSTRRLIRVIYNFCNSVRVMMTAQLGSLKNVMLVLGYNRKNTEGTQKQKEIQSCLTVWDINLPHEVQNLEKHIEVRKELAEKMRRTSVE
# [3] = molecular target: MAP kinase-activated protein kinase 2 (Homo sapiens, UniProt P49137); assay type: functional;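 note: measured as one member of a kinome-wide kinase panel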
# Sequence of MAP kinase-activated protein kinase 2 (P49137 whole entry): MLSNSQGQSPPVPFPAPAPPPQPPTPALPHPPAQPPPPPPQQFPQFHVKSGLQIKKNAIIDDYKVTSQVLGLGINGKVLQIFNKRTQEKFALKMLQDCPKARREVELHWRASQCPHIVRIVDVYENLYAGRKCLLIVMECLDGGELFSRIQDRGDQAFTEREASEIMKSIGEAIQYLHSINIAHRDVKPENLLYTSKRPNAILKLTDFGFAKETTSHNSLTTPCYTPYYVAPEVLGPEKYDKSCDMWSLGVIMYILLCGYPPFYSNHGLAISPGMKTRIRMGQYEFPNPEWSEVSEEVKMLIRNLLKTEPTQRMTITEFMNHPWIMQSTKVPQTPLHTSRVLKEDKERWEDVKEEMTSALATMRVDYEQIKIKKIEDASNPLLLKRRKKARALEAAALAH
# [4] = molecular target: Mast/stem cell growth factor receptor Kit (Homo sapiens, UniProt P10721); assay type: functional;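 note: KIT entry within a kinase panel assay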
# Sequence of Mast/stem cell growth factor receptor Kit (P10721 whole entry): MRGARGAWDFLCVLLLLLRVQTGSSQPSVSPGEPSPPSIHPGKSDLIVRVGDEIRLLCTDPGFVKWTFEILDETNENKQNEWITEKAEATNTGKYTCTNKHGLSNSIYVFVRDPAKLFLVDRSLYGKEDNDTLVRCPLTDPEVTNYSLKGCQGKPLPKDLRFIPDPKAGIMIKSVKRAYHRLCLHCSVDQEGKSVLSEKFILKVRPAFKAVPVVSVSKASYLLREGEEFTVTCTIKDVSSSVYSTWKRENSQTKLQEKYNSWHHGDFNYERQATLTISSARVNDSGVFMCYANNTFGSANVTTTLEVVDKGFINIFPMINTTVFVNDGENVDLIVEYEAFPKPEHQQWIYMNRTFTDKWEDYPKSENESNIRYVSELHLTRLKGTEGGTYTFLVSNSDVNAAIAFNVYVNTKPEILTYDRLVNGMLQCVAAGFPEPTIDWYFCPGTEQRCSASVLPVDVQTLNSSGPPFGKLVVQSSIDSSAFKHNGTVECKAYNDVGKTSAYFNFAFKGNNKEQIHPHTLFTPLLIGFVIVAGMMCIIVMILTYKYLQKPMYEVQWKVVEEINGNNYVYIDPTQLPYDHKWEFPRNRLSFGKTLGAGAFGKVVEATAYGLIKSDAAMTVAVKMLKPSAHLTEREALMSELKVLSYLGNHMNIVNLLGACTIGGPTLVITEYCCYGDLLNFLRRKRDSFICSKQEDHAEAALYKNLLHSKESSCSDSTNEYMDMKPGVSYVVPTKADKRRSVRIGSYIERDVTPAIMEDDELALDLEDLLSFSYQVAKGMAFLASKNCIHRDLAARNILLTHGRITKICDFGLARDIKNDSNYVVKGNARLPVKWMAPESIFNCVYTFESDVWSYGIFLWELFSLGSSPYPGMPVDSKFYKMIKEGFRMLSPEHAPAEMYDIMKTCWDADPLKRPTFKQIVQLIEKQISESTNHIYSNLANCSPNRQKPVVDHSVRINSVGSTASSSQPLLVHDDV
# [5] = molecular target: Casein kinase II subunit alpha (Homo sapiens, UniProt P68400); assay type: functional
# Sequence of Casein kinase II subunit alpha (P68400 whole entry): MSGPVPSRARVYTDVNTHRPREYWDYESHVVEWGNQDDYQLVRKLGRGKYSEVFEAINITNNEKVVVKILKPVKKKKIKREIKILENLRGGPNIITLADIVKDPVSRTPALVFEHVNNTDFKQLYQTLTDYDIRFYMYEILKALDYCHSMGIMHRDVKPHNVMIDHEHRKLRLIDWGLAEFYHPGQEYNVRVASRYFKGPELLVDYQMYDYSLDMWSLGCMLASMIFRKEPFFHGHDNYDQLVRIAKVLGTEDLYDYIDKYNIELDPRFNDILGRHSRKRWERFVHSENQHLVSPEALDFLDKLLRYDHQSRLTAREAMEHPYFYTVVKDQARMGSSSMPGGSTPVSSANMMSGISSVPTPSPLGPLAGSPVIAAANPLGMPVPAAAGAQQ
compound,measurement,setting,value
O=C1C=C(NCc2ccccc2)c2ccccc2C1=O,IC50,Hexokinase HKDC1,2.5 µM (active)
O=C(O)c1[nH]c2ccccc2c1C(c1cc(Cl)cc([N+](=O)[O-])c1O)c1c(C(=O)O)[nH]c2ccccc12,AC50,[1],7.15 µM (active)
Cc1cc(=O)[nH]nc1-c1ccc(NC(=O)Nc2cc(C(F)(F)F)ccc2F)c(Cl)c1,Ki,[2],> 2.51 µM (inactive)
CCOC(=O)c1cn(-c2ccc(O)cc2C)c2cc(-c3ccncc3)ccc2c1=O,Ki,[3],> 7.94 µM (inactive)
same,Ki,[4],> 1.26 µM (inactive)
same,Ki,[5],> 6.31 µM (inactive)
